Data on 8 compounds can be found in US6004976A, “Thrombin inhibitors” (Merck & Co., Inc., priority 1998, dated 1999).

The assay has as its target T1, human α-thrombin (Homo sapiens, UniProt P00734).
T1 construct: human α-thrombin
In words: In vitro assay for determining proteinase inhibition (thrombin). In kind it is biochemical. Conditions: 25° C., 0.05 M TRIS buffer pH 7.4, 0.15 M NaCl, 0.1% PEG. The procedure: In Vitro Assay for Determining Proteinase Inhibition
Assays of human α-thrombin and human trypsin were performed at 25° C. in 0.05 M TRIS buffer pH 7.4, 0.15 M NaCl, 0.1% PEG. Trypsin assays also contained 1 mM CaCl2.
In assays wherein rates of hydrolysis of a p-nitroanilide (pna) substrate were determined, a Thermomax 96-well plate reader was used to measure (at 405 nm) the time dependent appearance of p-nitroaniline. sar-PR-pna (sarcosine-Pro-Arg-p-nitroanilide) was used to assay human α-thrombin (Km=125 μM) and human trypsin (Km=59 μM). p-Nitroanilide substrate concentration was determined from measurements of absorbance at 342 nm using an extinction coefficient of 8270 cm-1M-1.
In certain studies with potent inhibitors (Ki<10 nM) where the degree of inhibition of thrombin was high, a more sensitive activity assay was employed. In this assay the rate of thrombin catalyzed hydrolysis of the fluorogenic substrate Z-GPR-afc (Cbz-Gly-Pro-Arg-7-amino-4-trifluoromethylcoumarin) (Km=27 μM) was determined from the increase in fluorescence at 500 nm (excitation at 400 nm) associated with production of 7-amino-4-trifluoromethyl coumarin. Concentrations of stock solutions of Z-GPR-afc were determined from measurements of absorbance at 380 nm of the 7-amino-4-trifluoromethyl coumarin produced upon complete hydrolysis of an aliquot of the stock solution by thrombin.
Activity assays were performed by diluting a stock solution of substrate at least tenfold to a final concentration≤0.5 Km into a solution containing enzyme or enzyme equilibrated with inhibitor. Times required to achieve equilibration between enzyme and inhibitor were determined in control experiments. Initial velocities of product formation in the absence (Vo) or presence of inhibitor (Vi) were measured. Assuming competitive inhibition, and that unity is negligible compared Km/[S], [I]/e, and [I]/e (where [S], [I], and e respectively represent the total concentrations, of substrate, inhibitor and enzyme), the equilibrium constant (Ki) for dissociation of the inhibitor from the enzyme can be obtained from the dependence of Vo/Vi on [I] shown in equation 1.

pKi: −log10 of the molar value.

Take `Cc1nc(N)ccc1CNC(=O)Cn1c(C)cc2c([nH]c(=O)n2CCc2ccccc2)c1=O`: the pKi was above 8.00. As for `Cc1nc(N)ccc1CNC(=O)Cn1c(C)cc2c([nH]c(=O)n2CCc2ccccn2)c1=O`, the pKi is above 8.00. Take `Cc1nc(N)ccc1CNC(=O)Cn1c(C)cc2c([nH]c(=O)n2CC2CCCCC2)c1=O`: the pKi is below 8.00. Take `Cc1nc(N)ccc1CNC(=O)Cn1c(C)cc2c([nH]c(=O)n2CCC(C)(C)C)c1=O`: the negative-log Ki (pKi) is below 8.00. Take `Cc1nc(N)ccc1CNC(=O)Cn1c(C)cc2c([nH]c(=O)n2[C@H](C)c2ccccc2)c1=O`: the pKi is below 8.00.

Compound `Cc1nc(N)ccc1CNC(=O)Cn1c(C)cc2c([nH]c(=O)n2CC2CC2)c1=O` showed a pKi below 8.00. With `Cc1nc(N)ccc1CNC(=O)Cn1c(C)cc2c([nH]c(=O)n2CCC(C)C)c1=O` the figure was above 8.00; with `Cc1cc2c([nH]c(=O)n2CCC(C)C)c(=O)n1CC(=O)NCc1ccccc1OCC(=O)NC1CC1`, below 8.00.

What is called pKi is the negative decadic logarithm of the Ki, by convention in mol/L. Low readings indicate a large Ki, high ones a small Ki.
